Measurements: ChEMBL document CHEMBL5653631, “A Potent and Selective ULK1 Inhibitor Suppresses Autophagy and Sensitizes Cancer Cells to Nutrient Stress” (iScience, 2018)
One block for each compound: values may come before it.

Columns and labels:
[1] = molecular target: Death-associated protein kinase 3 (Homo sapiens) (UniProt O43293); test: Inhibition of human recombinant DAPK3 at 500 nM in presence of ATP by radiometric assay relative to control
[2] = molecular target: T1, TGF-beta receptor type-1 (Homo sapiens) (UniProt P36897); test: Inhibition of human recombinant TGFbR1 at 500 nM in presence of ATP by radiometric assay relative to control
T1 sequence (whole entry): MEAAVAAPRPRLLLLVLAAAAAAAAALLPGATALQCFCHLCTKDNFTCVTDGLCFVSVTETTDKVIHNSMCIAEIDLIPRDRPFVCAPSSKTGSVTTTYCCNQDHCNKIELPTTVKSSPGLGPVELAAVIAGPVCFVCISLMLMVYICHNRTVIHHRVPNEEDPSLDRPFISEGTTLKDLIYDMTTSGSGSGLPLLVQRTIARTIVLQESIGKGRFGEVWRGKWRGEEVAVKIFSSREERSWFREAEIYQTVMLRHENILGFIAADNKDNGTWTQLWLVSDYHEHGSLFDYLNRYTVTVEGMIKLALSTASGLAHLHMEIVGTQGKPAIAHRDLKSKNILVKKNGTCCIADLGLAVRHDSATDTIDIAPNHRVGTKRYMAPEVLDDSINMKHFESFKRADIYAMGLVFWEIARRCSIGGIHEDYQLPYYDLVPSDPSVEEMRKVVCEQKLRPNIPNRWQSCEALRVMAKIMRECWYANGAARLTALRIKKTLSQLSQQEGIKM

[3] = molecular target: T2, SNF-related serine/threonine-protein kinase (Homo sapiens) (UniProt Q9NRH2); test: Inhibition of human recombinant SNRK at 500 nM related to control ULK1
T2 sequence (whole entry): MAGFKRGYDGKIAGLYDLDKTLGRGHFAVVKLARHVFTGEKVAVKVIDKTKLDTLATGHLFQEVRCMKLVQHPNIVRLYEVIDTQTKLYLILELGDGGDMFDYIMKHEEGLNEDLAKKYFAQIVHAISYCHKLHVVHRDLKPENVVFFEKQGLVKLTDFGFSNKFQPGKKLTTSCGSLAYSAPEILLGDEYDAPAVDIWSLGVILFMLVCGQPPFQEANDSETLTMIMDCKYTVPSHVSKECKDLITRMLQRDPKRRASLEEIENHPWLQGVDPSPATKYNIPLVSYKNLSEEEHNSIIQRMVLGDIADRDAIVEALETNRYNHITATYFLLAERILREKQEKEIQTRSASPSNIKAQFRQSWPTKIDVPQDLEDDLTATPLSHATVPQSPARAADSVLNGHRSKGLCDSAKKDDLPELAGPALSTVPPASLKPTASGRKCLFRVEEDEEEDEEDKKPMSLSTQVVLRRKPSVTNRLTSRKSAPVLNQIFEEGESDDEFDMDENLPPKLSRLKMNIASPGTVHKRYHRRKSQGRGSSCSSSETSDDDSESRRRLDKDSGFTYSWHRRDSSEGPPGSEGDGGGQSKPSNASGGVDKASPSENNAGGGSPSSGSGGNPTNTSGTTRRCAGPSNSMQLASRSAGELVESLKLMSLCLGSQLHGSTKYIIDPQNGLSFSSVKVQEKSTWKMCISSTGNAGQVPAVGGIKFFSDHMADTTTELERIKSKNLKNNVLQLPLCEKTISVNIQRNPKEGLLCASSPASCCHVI

[4] = molecular target: T3, Serine/threonine-protein kinase ULK3 (Homo sapiens) (UniProt Q6PHR2); test: Inhibition of human recombinant ULK3 at 500 nM in presence of ATP by radiometric assay relative to control
T3 sequence (whole entry): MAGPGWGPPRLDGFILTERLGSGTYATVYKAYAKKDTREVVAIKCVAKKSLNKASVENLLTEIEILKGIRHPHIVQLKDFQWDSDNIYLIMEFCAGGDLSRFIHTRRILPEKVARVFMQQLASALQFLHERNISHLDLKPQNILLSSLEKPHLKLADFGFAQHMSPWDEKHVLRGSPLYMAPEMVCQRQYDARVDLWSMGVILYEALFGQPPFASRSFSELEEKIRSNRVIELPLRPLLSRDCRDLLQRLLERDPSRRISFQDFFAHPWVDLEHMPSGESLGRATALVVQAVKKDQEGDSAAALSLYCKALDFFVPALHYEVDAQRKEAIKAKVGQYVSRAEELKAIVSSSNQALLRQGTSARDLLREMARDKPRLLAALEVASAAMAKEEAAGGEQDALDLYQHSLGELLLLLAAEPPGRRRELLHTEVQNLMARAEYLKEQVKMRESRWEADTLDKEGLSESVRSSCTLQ

[5] = molecular target: Protein kinase C eta type (Homo sapiens) (UniProt P24723); test: Inhibition of human recombinant PKCH at 500 nM related to control ULK1
[6] = molecular target: Cyclin-dependent kinase 5 (Homo sapiens) (UniProt Q00535); test: Inhibition of human recombinant CDK5 at 40 nM related to control ULK1
[7] = molecular target: Insulin receptor-related protein (Homo sapiens) (UniProt P14616); test: Inhibition of human recombinant IRR at 40 nM in presence of ATP by radiometric assay relative to control
[8] = molecular target: Maternal embryonic leucine zipper kinase (Homo sapiens) (UniProt Q14680); test: Inhibition of human recombinant MELK at 40 nM related to control ULK1
[9] = molecular target: Serine/threonine-protein kinase D2 (Homo sapiens) (UniProt Q9BZL6); test: Inhibition of human recombinant PKD2 at 40 nM in presence of ATP by radiometric assay relative to control
[10] = molecular target: Protein-tyrosine kinase 6 (Homo sapiens) (UniProt Q13882); test: Inhibition of human recombinant BRK at 40 nM related to control ULK1
[11] = molecular target: Death-associated protein kinase 1 (Homo sapiens) (UniProt P53355); test: Inhibition of human recombinant DAPK1 at 40 nM in presence of ATP by radiometric assay relative to control
[12] = molecular target: Serine/threonine-protein kinase PAK 4 (Homo sapiens) (UniProt O96013); test: Inhibition of human recombinant PAK4 at 15 nM related to control ULK1
[13] = molecular target: Serine/threonine-protein kinase MARK1 (Homo sapiens) (UniProt Q9P0L2); test: Inhibition of human recombinant MARK1 at 15 nM in presence of ATP by radiometric assay relative to control
[14] = molecular target: MAP kinase-activated protein kinase 3 (Homo sapiens) (UniProt Q16644); test: Inhibition of human recombinant MAPKAPK3 at 15 nM in presence of ATP by radiometric assay relative to control
[15] = molecular target: Tau-tubulin kinase 2 (Homo sapiens) (UniProt Q6IQ55); test: Inhibition of human recombinant TTBK2 at 15 nM in presence of ATP by radiometric assay relative to control

Chain of Cyclin-dependent kinase 5 (Homo sapiens) (Q00535 whole entry, looked up): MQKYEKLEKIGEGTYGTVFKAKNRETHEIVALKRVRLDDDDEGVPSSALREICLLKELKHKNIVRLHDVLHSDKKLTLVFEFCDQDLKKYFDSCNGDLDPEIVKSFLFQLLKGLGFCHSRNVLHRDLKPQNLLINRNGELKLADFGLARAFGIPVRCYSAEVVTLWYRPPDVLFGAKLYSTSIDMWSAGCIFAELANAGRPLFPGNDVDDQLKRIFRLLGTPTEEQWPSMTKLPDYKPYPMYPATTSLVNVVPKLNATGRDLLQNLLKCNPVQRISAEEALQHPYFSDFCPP
Chain of Serine/threonine-protein kinase PAK 4 (Homo sapiens) (O96013 whole entry, looked up): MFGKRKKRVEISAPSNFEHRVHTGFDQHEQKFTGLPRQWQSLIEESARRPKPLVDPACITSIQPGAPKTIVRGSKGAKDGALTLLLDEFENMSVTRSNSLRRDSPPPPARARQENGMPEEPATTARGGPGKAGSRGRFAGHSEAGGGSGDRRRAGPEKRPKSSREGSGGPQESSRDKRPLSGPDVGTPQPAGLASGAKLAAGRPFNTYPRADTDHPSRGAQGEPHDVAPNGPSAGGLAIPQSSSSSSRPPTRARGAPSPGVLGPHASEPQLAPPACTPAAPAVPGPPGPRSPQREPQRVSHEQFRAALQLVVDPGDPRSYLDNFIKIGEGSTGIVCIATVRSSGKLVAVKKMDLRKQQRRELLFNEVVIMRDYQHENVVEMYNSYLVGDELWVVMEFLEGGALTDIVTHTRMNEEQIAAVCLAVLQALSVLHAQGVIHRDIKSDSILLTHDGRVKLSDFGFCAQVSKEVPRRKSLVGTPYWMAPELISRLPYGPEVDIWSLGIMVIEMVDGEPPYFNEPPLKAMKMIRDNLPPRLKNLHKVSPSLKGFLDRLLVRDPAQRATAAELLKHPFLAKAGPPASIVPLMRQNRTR
Chain of MAP kinase-activated protein kinase 3 (Homo sapiens) (Q16644 whole entry, looked up): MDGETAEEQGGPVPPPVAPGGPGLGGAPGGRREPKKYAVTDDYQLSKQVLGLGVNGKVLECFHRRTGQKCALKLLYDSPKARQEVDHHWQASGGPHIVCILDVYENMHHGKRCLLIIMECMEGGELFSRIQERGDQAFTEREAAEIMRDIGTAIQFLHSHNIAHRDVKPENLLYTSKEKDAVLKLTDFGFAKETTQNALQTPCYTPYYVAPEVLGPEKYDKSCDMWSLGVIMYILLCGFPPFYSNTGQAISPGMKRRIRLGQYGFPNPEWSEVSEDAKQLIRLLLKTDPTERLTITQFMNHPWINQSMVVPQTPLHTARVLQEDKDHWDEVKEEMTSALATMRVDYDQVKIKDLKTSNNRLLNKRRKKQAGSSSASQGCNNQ
Chain of Maternal embryonic leucine zipper kinase (Homo sapiens) (Q14680 whole entry, looked up): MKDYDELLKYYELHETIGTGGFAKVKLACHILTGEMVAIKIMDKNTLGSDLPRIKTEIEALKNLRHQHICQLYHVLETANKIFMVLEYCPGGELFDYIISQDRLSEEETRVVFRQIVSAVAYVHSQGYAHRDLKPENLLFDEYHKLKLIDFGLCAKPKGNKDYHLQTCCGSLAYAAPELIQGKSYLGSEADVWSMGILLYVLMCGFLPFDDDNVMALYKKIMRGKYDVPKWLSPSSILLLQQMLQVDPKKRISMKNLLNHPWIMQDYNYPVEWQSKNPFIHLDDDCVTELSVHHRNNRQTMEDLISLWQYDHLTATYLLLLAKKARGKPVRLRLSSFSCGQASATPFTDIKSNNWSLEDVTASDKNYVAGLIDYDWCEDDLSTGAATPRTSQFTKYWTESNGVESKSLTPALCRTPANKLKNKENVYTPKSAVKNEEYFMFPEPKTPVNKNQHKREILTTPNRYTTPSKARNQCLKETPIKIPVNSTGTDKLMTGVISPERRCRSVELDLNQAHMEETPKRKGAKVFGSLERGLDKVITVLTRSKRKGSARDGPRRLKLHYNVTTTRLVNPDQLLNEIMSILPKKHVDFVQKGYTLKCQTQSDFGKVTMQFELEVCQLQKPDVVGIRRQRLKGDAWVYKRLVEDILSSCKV
Chain of Serine/threonine-protein kinase MARK1 (Homo sapiens) (Q9P0L2 whole entry, looked up): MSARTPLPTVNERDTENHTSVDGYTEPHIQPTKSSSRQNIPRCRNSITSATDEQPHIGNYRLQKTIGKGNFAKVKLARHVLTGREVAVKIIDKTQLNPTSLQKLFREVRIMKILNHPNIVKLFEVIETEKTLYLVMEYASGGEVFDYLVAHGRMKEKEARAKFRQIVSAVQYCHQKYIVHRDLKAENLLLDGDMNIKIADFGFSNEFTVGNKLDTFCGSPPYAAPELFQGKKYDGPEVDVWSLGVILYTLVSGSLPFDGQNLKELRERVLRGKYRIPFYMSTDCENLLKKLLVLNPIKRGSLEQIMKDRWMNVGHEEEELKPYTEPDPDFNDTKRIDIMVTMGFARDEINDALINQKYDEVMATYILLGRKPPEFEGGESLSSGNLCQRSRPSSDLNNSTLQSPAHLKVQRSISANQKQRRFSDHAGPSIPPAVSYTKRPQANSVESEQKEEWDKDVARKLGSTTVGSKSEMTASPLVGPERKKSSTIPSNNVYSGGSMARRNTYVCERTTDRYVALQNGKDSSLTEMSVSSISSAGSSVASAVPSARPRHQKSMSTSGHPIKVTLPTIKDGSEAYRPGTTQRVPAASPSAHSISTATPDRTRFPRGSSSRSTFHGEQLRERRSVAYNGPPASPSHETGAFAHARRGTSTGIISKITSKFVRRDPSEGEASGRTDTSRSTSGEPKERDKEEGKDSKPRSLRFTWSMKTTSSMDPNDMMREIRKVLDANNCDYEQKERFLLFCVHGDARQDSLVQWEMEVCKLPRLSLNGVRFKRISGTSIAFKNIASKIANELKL
Chain of Death-associated protein kinase 3 (Homo sapiens) (O43293 whole entry, looked up): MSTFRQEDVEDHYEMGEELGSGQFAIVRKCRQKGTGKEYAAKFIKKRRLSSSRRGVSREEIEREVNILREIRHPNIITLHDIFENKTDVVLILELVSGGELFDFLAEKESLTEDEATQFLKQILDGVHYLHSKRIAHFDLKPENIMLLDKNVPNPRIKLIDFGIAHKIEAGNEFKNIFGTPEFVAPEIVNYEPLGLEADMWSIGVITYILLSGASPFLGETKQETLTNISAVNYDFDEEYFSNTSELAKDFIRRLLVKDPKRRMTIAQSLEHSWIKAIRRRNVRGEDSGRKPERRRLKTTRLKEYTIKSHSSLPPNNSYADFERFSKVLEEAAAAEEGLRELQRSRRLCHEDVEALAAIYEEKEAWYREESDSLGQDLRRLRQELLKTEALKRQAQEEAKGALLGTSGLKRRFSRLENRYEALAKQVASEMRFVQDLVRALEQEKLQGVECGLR
Chain of Death-associated protein kinase 1 (Homo sapiens) (P53355 whole entry, looked up): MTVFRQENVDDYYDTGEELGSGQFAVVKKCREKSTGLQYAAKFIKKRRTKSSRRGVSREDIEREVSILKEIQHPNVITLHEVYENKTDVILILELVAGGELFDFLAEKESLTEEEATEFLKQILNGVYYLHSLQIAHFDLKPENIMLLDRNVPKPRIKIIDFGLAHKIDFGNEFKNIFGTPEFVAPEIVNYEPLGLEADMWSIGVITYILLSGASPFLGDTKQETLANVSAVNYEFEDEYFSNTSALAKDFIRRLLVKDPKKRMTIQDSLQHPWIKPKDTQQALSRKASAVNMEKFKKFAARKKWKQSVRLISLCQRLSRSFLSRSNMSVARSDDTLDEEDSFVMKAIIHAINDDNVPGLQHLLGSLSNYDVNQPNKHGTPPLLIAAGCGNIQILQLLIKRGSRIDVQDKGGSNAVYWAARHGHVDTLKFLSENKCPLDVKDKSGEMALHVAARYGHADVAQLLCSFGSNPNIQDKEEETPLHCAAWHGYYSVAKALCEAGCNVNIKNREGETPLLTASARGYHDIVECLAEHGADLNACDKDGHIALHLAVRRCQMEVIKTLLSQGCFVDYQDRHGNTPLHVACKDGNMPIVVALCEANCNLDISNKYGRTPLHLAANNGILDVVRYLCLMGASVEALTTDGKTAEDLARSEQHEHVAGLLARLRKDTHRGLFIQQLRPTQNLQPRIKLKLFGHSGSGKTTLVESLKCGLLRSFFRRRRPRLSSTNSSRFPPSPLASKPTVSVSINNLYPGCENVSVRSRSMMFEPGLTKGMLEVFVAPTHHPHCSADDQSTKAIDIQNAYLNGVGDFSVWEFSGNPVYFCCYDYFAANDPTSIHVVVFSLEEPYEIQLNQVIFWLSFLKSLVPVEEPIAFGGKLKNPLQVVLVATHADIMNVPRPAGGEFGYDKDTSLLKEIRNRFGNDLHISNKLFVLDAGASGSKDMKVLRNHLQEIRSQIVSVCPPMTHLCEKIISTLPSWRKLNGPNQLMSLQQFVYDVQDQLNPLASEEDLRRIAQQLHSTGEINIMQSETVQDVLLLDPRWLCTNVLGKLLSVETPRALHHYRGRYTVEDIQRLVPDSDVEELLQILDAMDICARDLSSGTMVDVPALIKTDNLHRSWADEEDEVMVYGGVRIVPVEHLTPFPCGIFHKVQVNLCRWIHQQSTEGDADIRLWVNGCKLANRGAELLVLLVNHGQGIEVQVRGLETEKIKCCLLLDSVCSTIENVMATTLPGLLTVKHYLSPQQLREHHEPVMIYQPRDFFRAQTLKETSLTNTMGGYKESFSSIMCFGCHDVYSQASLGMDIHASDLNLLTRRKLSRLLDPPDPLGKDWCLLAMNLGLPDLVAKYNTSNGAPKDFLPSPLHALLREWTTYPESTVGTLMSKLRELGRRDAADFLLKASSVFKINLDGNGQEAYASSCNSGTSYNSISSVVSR
Chain of Protein-tyrosine kinase 6 (Homo sapiens) (Q13882 whole entry, looked up): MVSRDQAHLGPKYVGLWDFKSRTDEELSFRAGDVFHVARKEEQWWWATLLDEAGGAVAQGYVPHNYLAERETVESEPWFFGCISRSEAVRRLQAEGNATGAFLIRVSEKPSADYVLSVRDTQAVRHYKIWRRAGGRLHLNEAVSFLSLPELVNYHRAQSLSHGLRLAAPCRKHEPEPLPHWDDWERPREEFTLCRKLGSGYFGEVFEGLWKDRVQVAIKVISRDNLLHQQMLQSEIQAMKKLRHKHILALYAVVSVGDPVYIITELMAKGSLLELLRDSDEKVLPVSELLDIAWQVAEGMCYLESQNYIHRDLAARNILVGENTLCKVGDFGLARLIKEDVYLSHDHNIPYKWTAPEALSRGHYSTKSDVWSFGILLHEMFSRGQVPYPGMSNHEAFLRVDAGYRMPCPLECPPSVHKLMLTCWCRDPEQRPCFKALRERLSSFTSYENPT

inhibition [2]: 0%
fold change (FC) [3]: 0
inhibition [4]: 84%
fold change (FC) [5]: 0.09
SMILES: CNC(=O)c1ccccc1Oc1nc(Nc2cc(OC)c(OC)c(OC)c2)ncc1Br
inhibition [1]: 10%

fold change (FC) [6]: 0.64
inhibition [7]: 2%
fold change (FC) [8]: 0.27
inhibition [9]: 6%
fold change (FC) [10]: 0
SMILES: O=C(N[C@@H](C1CC1)C(F)(F)F)c1cc(-c2cnn3cc(-c4ccc(F)cc4)cnc23)cs1
inhibition [11]: 0%

fold change (FC) [12]: 0
inhibition [13]: 54%
inhibition [14]: 0%
inhibition [15]: 0%
SMILES: CC(C)[C@H](NC(=O)c1cc(-c2cnn3cc(-c4ccc(OCCN5CCCCC5)cc4)cnc23)cs1)C(F)(F)F
